Measured values: patent US20240261274A1, “TREATMENT OF MYC-DRIVEN CANCERS WITH GSPT1 DEGRADERS” (MONTE ROSA THERAPEUTICS, INC., priority 2021, published 2024)
Where two headings read alike, the source gives them in different places.

How the values were obtained:
[1] = system: NCI-1155 NSCLC cell line derived xenograft; test: NCI-H1155 NSCLC CDX efficacy study (Compound 345); assay type: in vivo, immunodeficient mice; details: oral daily 1, 3 and 10 mg/kg
Procedure: Cell line derived xenograft (CDX) models were produced for the NCI-1155 NSCLC cell line in immunodeficient mice. Oral dosing of Compound 345 was performed daily at doses of 1 mg/kg, 3 mg/kg, and 10 mg/kg with a no-drug vehicle control. Tumor volumes were measured (mm^3) at days 3, 7, 10, 14, and 17.
In vivo efficacy study: NCI-H1155, MM1 S, WSU-DLCL2, DOHH-2 cells were maintained in vitro in individual medium and conditions as recommended by the providers and incubated at 37° C. in an atmosphere of 5% CO2 in air. 0.5 million (NCI-H1155), 10 million (MM1S) or 5 million (WSU-DLCL2 and DOHH-2) cells were resuspended in typically 0.1-0.2 mL of PBS with Matrigel (50:50) and were inoculated into 6-8 weeks old BALB/c nude female (NCI-H115, WSU-DLCL2), NOD/SCID (MM1S) or CB-17SCID (DOHH-2) mice and allowed to grow to 150-200 mm3 in size. Mice were dosed orally (PO) and daily (QD) with either vehicle or Compound 345 typically at 1.0 mg/kg, 3.0 mg/kg and 10 mg/kg. […] Tumor volumes were measured at least twice weekly during the treatment period using a caliper and the volume was expressed in mm3 using the formula: V=0.5 a×b2 where a and b were the long and short diameters of the tumor, respectively. […] Data are expressed as the mean±SEM. All data was analyzed using GraphPad Prism 8.1.2 (GraphPad).

GSPT1 = GSPT1 (Homo sapiens, UniProt P15170+Q96SW2); test: GSPT1 degradation by immunoblotting in cancer cell lines (Compound 345); assay type: cell-based; parameters: endogenous in cells; host or cells: MM1 S (ATCC CRL-2974); details: for GSPT1 degradation (immunoblots): 0.03, 0.3, 3 μM; for DC50: read-out: GSPT1 DC50
GSPT1, sequence (P15170 whole entry): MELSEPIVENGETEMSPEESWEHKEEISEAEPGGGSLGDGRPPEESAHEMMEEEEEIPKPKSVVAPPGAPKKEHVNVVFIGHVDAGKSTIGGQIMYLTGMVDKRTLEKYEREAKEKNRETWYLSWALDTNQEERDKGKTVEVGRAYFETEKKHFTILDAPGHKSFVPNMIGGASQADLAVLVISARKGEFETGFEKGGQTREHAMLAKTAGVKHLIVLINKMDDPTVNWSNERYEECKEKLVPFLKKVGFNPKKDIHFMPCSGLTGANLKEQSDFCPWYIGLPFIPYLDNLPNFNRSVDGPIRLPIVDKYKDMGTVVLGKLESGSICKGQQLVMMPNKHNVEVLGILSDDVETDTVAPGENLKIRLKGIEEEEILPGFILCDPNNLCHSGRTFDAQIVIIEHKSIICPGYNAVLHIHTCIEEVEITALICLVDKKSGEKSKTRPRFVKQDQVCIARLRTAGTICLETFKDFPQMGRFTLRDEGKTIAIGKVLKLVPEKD
GSPT1, sequence (Q96SW2 whole entry): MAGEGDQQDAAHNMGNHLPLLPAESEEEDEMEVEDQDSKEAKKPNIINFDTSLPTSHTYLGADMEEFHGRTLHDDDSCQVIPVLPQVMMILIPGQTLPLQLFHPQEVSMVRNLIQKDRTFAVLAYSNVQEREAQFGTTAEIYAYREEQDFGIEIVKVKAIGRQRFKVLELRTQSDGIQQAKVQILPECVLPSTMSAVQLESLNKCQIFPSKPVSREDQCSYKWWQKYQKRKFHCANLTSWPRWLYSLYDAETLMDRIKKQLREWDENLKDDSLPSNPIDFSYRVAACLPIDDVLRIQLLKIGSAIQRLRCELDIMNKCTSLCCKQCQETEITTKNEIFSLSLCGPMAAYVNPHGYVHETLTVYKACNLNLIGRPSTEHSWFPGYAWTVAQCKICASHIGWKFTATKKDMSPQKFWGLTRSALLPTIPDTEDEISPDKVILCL
GSPT1, sequence (Q16531 whole entry partner): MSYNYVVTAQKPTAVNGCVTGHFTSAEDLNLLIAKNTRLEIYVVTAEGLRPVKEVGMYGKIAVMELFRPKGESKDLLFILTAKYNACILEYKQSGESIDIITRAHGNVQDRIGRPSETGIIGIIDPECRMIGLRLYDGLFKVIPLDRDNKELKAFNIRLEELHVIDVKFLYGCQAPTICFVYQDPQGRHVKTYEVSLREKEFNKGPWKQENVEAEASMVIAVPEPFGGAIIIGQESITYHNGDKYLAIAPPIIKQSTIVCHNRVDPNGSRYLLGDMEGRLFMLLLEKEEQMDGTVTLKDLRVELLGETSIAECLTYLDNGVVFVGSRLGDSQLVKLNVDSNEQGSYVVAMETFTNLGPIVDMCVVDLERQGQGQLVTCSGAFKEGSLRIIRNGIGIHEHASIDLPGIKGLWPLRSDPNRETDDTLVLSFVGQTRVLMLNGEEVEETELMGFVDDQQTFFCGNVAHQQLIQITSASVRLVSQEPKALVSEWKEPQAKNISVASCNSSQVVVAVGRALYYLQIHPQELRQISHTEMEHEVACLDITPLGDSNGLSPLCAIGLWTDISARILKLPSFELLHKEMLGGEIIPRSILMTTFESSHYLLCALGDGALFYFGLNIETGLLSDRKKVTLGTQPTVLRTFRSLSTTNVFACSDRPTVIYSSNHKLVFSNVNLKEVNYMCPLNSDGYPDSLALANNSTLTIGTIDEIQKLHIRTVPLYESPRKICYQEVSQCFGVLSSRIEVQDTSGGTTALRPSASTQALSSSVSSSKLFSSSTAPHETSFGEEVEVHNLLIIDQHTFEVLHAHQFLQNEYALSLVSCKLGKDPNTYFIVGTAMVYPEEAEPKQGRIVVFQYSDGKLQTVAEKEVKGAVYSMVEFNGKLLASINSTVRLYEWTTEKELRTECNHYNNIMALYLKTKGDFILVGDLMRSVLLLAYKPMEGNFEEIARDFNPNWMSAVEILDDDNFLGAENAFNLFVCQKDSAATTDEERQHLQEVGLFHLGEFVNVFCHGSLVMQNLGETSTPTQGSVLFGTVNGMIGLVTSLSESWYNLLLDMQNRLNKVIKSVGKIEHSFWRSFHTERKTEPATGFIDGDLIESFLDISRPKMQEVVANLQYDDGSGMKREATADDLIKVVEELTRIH
Procedure: Two high N-Myc expressing NSCLC cell lines (NCI-H155 and ABC-1) and two low N-Myc expressing NSCLC cell lines (NCI-H2023 and NCI-H441) were treated with Compound 345 in culture. Cells were treated with increasing concentrations of the compound (0.0; 0.00064; 0.0032; 0.016; 0.08; 0.4; 2.0; 10; and 30 nM), lysates were prepared, SDS-PAGE and immunoblotting was performed, and transfer membranes were probed for GSPT1 and GAPDH as a loading control. Expression levels of GSPT1 detected in the immunoblots of this experiment are plotted against concentration of Compound 345 in FIG. 10B. DC50 values (the concentration of the compound at which the target protein is degraded by 50%) were estimated for each cell line. NCI-H155, DC50=14 nM; ABC-1, DC50=76 nM; NCI-H2023, DC50=18 nM; NCI-H441, DC50=8.7 nM. Estimated Dmax for all cell lines was 95%-99%.
GSPT1 and N-Myc western blotting analyses from cell line lysates: NCI-H1155, NCI-H2023, NCI-H441, ABC-1, NCI-H1836, NCI-H1876, MM.1S, DOHH2 and WSU-DLCLC2 cells were typically seeded in a 6 or 12 well plate (0.3 to 1.0×10^6 cells/mL) and incubated overnight. Compound 345 was dissolved in DMSO to obtain a 10 mM stock solution, and aliquots were stored at −20° C. The next day, cells were treated with various concentrations of Compound 345 or DMSO (Sigma, D2650) using a HP D300 dispenser (Tecan). Controls were pretreated for 30 minutes with Bortezomib (0.2 μM). Cells were washed with ice cold PBS at the indicated timepoints post addition of Compound 345 and lysed with 50 to 100 μL lysis buffer containing RIPA buffer (Invitrogen, R0278) and a mix of protease inhibitor cocktail (Sigma, P8340, 5726 and 0044). Protein concentration was assessed using the BCA assay (Pierce™ Rapid Gold BCA Protein Assay Kit, A53227) and 10 μg of protein was typically loaded onto a TGX Stain free 4-20% Criterion gel (Biorad, 5678095) for separation. Gel was transferred onto a 0.2 μm nitrocellulose membrane using the TransBlot transfer system (Biorad). Membranes were blocked in Every Blot Blocking Buffer (Biorad, 12010020) and incubated overnight at 4° C. with either of the following primary antibody: anti-GSPT1 diluted 1/5000th (Sigma, HPA052488), anti-N-Myc clone D1V2A diluted 1/1000th (Cell Signaling Technology, 84406), anti-α-Tubulin clone DM1A Alexa Fluor® 488 Conjugated (Cell Signaling Technology, Cat. No. CST8058) or anti-GAPDH Alexa647-coupled diluted 1/2500th (Invitrogen, MA5-15738-A647). The next day, a secondary HRP-conjugated goat anti-rabbit secondary antibody (Invitrogen, A16110) was used to allow detection of unlabelled primary antibodies. Membranes were imaged on a ChemiDoc imager (Biorad) using either fluorescence or chemiluminescence detection. Images were quantified using the Image Lab Software Version 6.1 (Biorad). Images were adjusted for alignment and contrast. Columns were manually defined to enable the band detection by the software. Band intensities, or densitometries, were exported to Excel (Microsoft® Excel® for Microsoft 365 MSO Version 2110) for further analysis. Briefly, band intensity for the protein of interest was normalized to the DMSO control, before being normalized to the GAPDH band intensity for the same column. Normalised data was transferred to GraphPad Prism 8.1.2 (GraphPad) and fitted using a four parameters models ([Inhibitor] vs. response—Variable slope) defined by the following equation: Y=Dmax+(Top−Dmax)/(1+(DC50/X)^HillSlope). Key degradation parameters reported included DC50 (concentration at which the GSPT1 total protein levels are reduced by 50%) and Dmax (maximum fractional amount of protein degraded).

[2] = MM1 S multiple myeloma cells, 24 hours

In the case of O=C1CCC(N2Cc3ccc(COC(=O)Nc4cc(OC(F)(F)F)ccc4F)cc3C2=O)C(=O)N1 (stereo not drawn) [Compound 345, (2-(2,6-dioxopiperidin-3-yl)-3-oxoisoindolin-5-yl)methyl(2-fluoro-5-(trifluoromethoxy)phenyl)carbamate], the tumor volume [1] is reported as “anti-tumor activity and regression”, the Dmax (GSPT1; [2]) is reported as 100% and the “GSPT1 degradation (immunoblots)” value (GSPT1; NCI-H155 and NCI-H2023, 0, 2, 6 hours) is reported as “efficient degradation of GSPT1 in a time and dose dependent manner”. The “GSPT1 degradation (immunoblots)” value (GSPT1; SCLC cell lines NCI-H1836 and NCI-H1876, up to 24 hours) was “efficient degradation of GSPT1 in SCLC cell lines in a time and dose dependent manner”, the Dmax (GSPT1; WSUDLCL2, WSU-DLCL2 triple hit lymphoma cells, 24 hours) was 100% and the Dmax (GSPT1; all cell lines (NCI-H155, ABC-1, NCI-H2023, NCI-H441)) was 95 to 99%. The DC50 (GSPT1; ABC-1 (high N-Myc NSCLC)) was 76 nM, the DC50 (GSPT1; [2]) was 6 nM and the DC50 (GSPT1; NCI-H155 (high N-Myc NSCLC)) was 14 nM. The DC50 (GSPT1; NCI-H441 (low N-Myc NSCLC)) was 8.7 nM, the DC50 (GSPT1; NCI-H2023 (low N-Myc NSCLC)) was 18 nM and the DC50 (GSPT1; WSU-DLCL2 triple hit lymphoma cells, 24 hours) was 24 nM.
